Measurements taken from ChEMBL document CHEMBL3885881, “DrugMatrix”.

Species on record: Rattus norvegicus
Test: DrugMatrix - Regimen: Daily Repeat
Format: toxicity, organism-based, Sprague-Dawley
Parameters: regimen Daily Repeat, gender Male, age 6-8 weeks
Conditions: in vivo, po, route oral GAVAGE, vehicle .5 % CMC; for ABSOLUTE BASOPHIL / ABSOLUTE EOSINOPHIL / ABSOLUTE LYMPHOCYTE / ABSOLUTE MONOCYTE / ABSOLUTE SEGMENTED NEUTROPHIL / BASOPHIL / EOSINOPHIL / ERYTHROCYTE COUNT / HEMATOCRIT / HEMOGLOBIN / LEUKOCYTE COUNT / LYMPHOCYTE / MEAN CORPUSCULAR HEMOGLOBIN / MEAN CORPUSCULAR HEMOGLOBIN CONCENTRATION / MEAN CORPUSCULAR VOLUME / MONOCYTE / NEUTROPHIL / NUCLEATED RED BLOOD CELLS / PLATELET COUNT: tissue Blood; for ALANINE AMINOTRANSFERASE / ALBUMIN / ALKALINE PHOSPHATASE / ASPARTATE AMINOTRANSFERASE / BLOOD UREA NITROGEN / CARBON DIOXIDE / CHLORIDE / CHOLESTEROL / CREATINE PHOSPHOKINASE / CREATININE / GLUCOSE / LACTATE DEHYDROGENASE / LIPASE / PHOSPHORUS / POTASSIUM / SODIUM / TOTAL BILIRUBIN / TOTAL PROTEIN / URIC ACID: tissue Plasma
[1] = 0 mg/kg, 72 h, dose level Control, time 3 day
[2] = 0 mg/kg, 120 h, dose level Control, time 5 day
[3] = 75 mg/kg, 72 h, dose level High, time 3 day

Q: Which “ABSOLUTE BASOPHIL” value [1] does the source give for `Cc1ccc(/N=C/N(C)/C=N/c2ccc(C)cc2C)c(C)c1` [AMITRAZ] here?
A: 0 CELLS/uL

Q: And the “ABSOLUTE EOSINOPHIL” value [1]?
A: 0 CELLS/uL

Q: And the “ABSOLUTE LYMPHOCYTE” value [1]?
A: 12269.67 CELLS/uL

Q: And the “ABSOLUTE MONOCYTE” value [1]?
A: 160.33 CELLS/uL

Q: And the “ABSOLUTE SEGMENTED NEUTROPHIL” value [1]?
A: 970 CELLS/uL

Q: What about the BASOPHIL [1] of the same compound?
A: 0%

Q: And the EOSINOPHIL [1]?
A: 0%

Q: And the “ERYTHROCYTE COUNT” value [1]?
A: 5.76 x10E6/uL

Q: And the HEMATOCRIT [1]?
A: 36.57%

Q: What about the HEMOGLOBIN [1] of the same compound?
A: 14.22 G/DL

Q: And the “LEUKOCYTE COUNT” value [1]?
A: 13.4 x10E3/uL

Q: What about the LYMPHOCYTE [1] of the same compound?
A: 91.67%

Q: What about the “MEAN CORPUSCULAR HEMOGLOBIN” value [1] of the same compound?
A: 24.67 pg

Q: What about the “MEAN CORPUSCULAR HEMOGLOBIN CONCENTRATION” value [1] of the same compound?
A: 38.85 G/DL

Q: And the “MEAN CORPUSCULAR VOLUME” value [1]?
A: 63.52 fL

Q: What about the MONOCYTE [1] of the same compound?
A: 1.17%

Q: What about the NEUTROPHIL [1] of the same compound?
A: 7.17%

Q: And the “NUCLEATED RED BLOOD CELLS” value [1]?
A: 0.33 /100WBC

Q: And the “PLATELET COUNT” value [1]?
A: 1250.83 x10E3/uL

Q: And the “ALANINE AMINOTRANSFERASE” value [1]?
A: 49.17 u/L

Q: What about the ALBUMIN [1] of the same compound?
A: 4.33 G/DL

Q: What about the “ALKALINE PHOSPHATASE” value [1] of the same compound?
A: 378.5 u/L

Q: What about the “ASPARTATE AMINOTRANSFERASE” value [1] of the same compound?
A: 82.17 u/L

Q: What about the “BLOOD UREA NITROGEN” value [1] of the same compound?
A: 15 mg/dL

Q: And the “CARBON DIOXIDE” value [1]?
A: 34.33 mmol/L

Q: What about the CHLORIDE [1] of the same compound?
A: 99.17 MEQ/L

Q: And the CHOLESTEROL [1]?
A: 71.17 mg/dL

Q: And the “CREATINE PHOSPHOKINASE” value [1]?
A: 258.67 u/L

Q: What about the CREATININE [1] of the same compound?
A: 0.18 mg/dL

Q: What about the GLUCOSE [1] of the same compound?
A: 142.67 mg/dL

Q: And the “LACTATE DEHYDROGENASE” value [1]?
A: 154.33 u/L

Q: And the LIPASE [1]?
A: 9 u/L

Q: And the PHOSPHORUS [1]?
A: 11.67 mg/dL

Q: And the POTASSIUM [1]?
A: 7.13 MEQ/L

Q: And the SODIUM [1]?
A: 142.22 MEQ/L

Q: What about the “TOTAL BILIRUBIN” value [1] of the same compound?
A: 0.18 mg/dL

Q: What about the “TOTAL PROTEIN” value [1] of the same compound?
A: 5.77 G/DL

Q: And the “URIC ACID” value [1]?
A: 1.55 mg/dL

Q: And the “ABSOLUTE BASOPHIL” value [2]?
A: 0 CELLS/uL

Q: And the “ABSOLUTE EOSINOPHIL” value [2]?
A: 23.33 CELLS/uL

Q: And the “ABSOLUTE LYMPHOCYTE” value [2]?
A: 14943.67 CELLS/uL

Q: And the “ABSOLUTE MONOCYTE” value [2]?
A: 32 CELLS/uL

Q: What about the “ABSOLUTE SEGMENTED NEUTROPHIL” value [2] of the same compound?
A: 1084.33 CELLS/uL

Q: And the BASOPHIL [2]?
A: 0%

Q: And the EOSINOPHIL [2]?
A: 0.17%

Q: What about the “ERYTHROCYTE COUNT” value [2] of the same compound?
A: 5.71 x10E6/uL

Q: What about the HEMATOCRIT [2] of the same compound?
A: 35.28%

Q: What about the HEMOGLOBIN [2] of the same compound?
A: 14.27 G/DL

Q: And the “LEUKOCYTE COUNT” value [2]?
A: 16.08 x10E3/uL

Q: And the LYMPHOCYTE [2]?
A: 93%

Q: And the “MEAN CORPUSCULAR HEMOGLOBIN” value [2]?
A: 25.02 pg

Q: And the “MEAN CORPUSCULAR HEMOGLOBIN CONCENTRATION” value [2]?
A: 40.43 G/DL

Q: And the “MEAN CORPUSCULAR VOLUME” value [2]?
A: 61.82 fL

Q: What about the MONOCYTE [2] of the same compound?
A: 0.17%

Q: What about the NEUTROPHIL [2] of the same compound?
A: 6.67%

Q: And the “NUCLEATED RED BLOOD CELLS” value [2]?
A: 0.33 /100WBC

Q: And the “PLATELET COUNT” value [2]?
A: 1274 x10E3/uL

Q: And the “ALANINE AMINOTRANSFERASE” value [2]?
A: 54.17 u/L

Q: And the ALBUMIN [2]?
A: 4.22 G/DL

Q: What about the “ALKALINE PHOSPHATASE” value [2] of the same compound?
A: 373.17 u/L

Q: And the “ASPARTATE AMINOTRANSFERASE” value [2]?
A: 81.83 u/L

Q: And the “BLOOD UREA NITROGEN” value [2]?
A: 16.67 mg/dL

Q: What about the “CARBON DIOXIDE” value [2] of the same compound?
A: 30.33 mmol/L

Q: What about the CHLORIDE [2] of the same compound?
A: 99 MEQ/L

Q: What about the CHOLESTEROL [2] of the same compound?
A: 71 mg/dL

Q: And the “CREATINE PHOSPHOKINASE” value [2]?
A: 273.5 u/L

Q: What about the CREATININE [2] of the same compound?
A: 0.22 mg/dL

Q: What about the GLUCOSE [2] of the same compound?
A: 141.83 mg/dL

Q: What about the “LACTATE DEHYDROGENASE” value [2] of the same compound?
A: 153.67 u/L

Q: And the LIPASE [2]?
A: 10.33 u/L

Q: What about the PHOSPHORUS [2] of the same compound?
A: 11.38 mg/dL

Q: What about the POTASSIUM [2] of the same compound?
A: 7.08 MEQ/L

Q: What about the SODIUM [2] of the same compound?
A: 142.75 MEQ/L

Q: And the “TOTAL BILIRUBIN” value [2]?
A: 0.18 mg/dL

Q: And the “TOTAL PROTEIN” value [2]?
A: 6.1 G/DL

Q: What about the “URIC ACID” value [2] of the same compound?
A: 1.67 mg/dL

Q: What about the “ABSOLUTE BASOPHIL” value [3] of the same compound?
A: 0 CELLS/uL

Q: And the “ABSOLUTE EOSINOPHIL” value [3]?
A: 0 CELLS/uL

Q: What about the “ABSOLUTE LYMPHOCYTE” value [3] of the same compound?
A: 12442 CELLS/uL

Q: And the “ABSOLUTE MONOCYTE” value [3]?
A: 223 CELLS/uL

Q: And the “ABSOLUTE SEGMENTED NEUTROPHIL” value [3]?
A: 868.33 CELLS/uL

Q: And the BASOPHIL [3]?
A: 0%

Q: And the EOSINOPHIL [3]?
A: 0%

Q: What about the “ERYTHROCYTE COUNT” value [3] of the same compound?
A: 6.64 x10E6/uL

Q: What about the HEMATOCRIT [3] of the same compound?
A: 42%

Q: And the HEMOGLOBIN [3]?
A: 16.13 G/DL

Q: What about the “LEUKOCYTE COUNT” value [3] of the same compound?
A: 13.53 x10E3/uL

Q: And the LYMPHOCYTE [3]?
A: 92.33%

Q: What about the “MEAN CORPUSCULAR HEMOGLOBIN” value [3] of the same compound?
A: 24.27 pg

Q: What about the “MEAN CORPUSCULAR HEMOGLOBIN CONCENTRATION” value [3] of the same compound?
A: 38.4 G/DL

Q: What about the “MEAN CORPUSCULAR VOLUME” value [3] of the same compound?
A: 63.23 fL

Q: What about the MONOCYTE [3] of the same compound?
A: 1.67%

Q: And the NEUTROPHIL [3]?
A: 6%

Q: What about the “NUCLEATED RED BLOOD CELLS” value [3] of the same compound?
A: 0 /100WBC

Q: What about the “PLATELET COUNT” value [3] of the same compound?
A: 1347.33 x10E3/uL

Q: And the “ALANINE AMINOTRANSFERASE” value [3]?
A: 35.67 u/L

Q: And the ALBUMIN [3]?
A: 3.93 G/DL

Q: What about the “ALKALINE PHOSPHATASE” value [3] of the same compound?
A: 354 u/L

Q: What about the “ASPARTATE AMINOTRANSFERASE” value [3] of the same compound?
A: 84.33 u/L

Q: And the “BLOOD UREA NITROGEN” value [3]?
A: 20 mg/dL

Q: What about the “CARBON DIOXIDE” value [3] of the same compound?
A: 34.67 mmol/L

Q: What about the CHLORIDE [3] of the same compound?
A: 101.67 MEQ/L

Q: And the CHOLESTEROL [3]?
A: 49 mg/dL

Q: And the “CREATINE PHOSPHOKINASE” value [3]?
A: 285.33 u/L

Q: And the CREATININE [3]?
A: 0.3 mg/dL

Q: What about the GLUCOSE [3] of the same compound?
A: 211 mg/dL

Q: What about the “LACTATE DEHYDROGENASE” value [3] of the same compound?
A: 230 u/L

Q: What about the LIPASE [3] of the same compound?
A: 8.33 u/L

Q: And the PHOSPHORUS [3]?
A: 11.13 mg/dL

Q: And the POTASSIUM [3]?
A: 6.26 MEQ/L

Q: What about the SODIUM [3] of the same compound?
A: 146.5 MEQ/L

Q: And the “TOTAL BILIRUBIN” value [3]?
A: 0.23 mg/dL

Q: And the “TOTAL PROTEIN” value [3]?
A: 5.2 G/DL

Q: What about the “URIC ACID” value [3] of the same compound?
A: 1.83 mg/dL
